Reference: patent US9682092B2, “Boron-containing small molecules as anti-inflammatory agents” (ANACOR PHARMACEUTICALS, INC., priority 2006, dated 2017)

SMILES	melting point [°C]
OB1OCc2ccc(N3CCN(c4ccccn4)CC3)cc21 [C48, 6-(4-(pyridin-2-yl)piperazin-yl)benzo[c][1,2]oxaborol-1(3H)-ol]	135 to 138
OB1OCc2ccc(Oc3ccc(OC(F)(F)F)cc3)cc21 [C29, 6-(4-trifluoromethoxyphenoxy)-1,3-dihydro-1-hydroxy-2,1-benzoxaborole]	97 to 101
COc1ccc(Oc2ccc3c(c2)B(O)OC3)cc1 [C31, 6-(4-Methoxyphenoxy)-1,3-dihydro-1-hydroxy-2,1-benzoxaborole]	126 to 129
O=C(COc1ccc2c(c1)COB2O)N1CCN(c2ncccn2)CC1 [C47, 2-(1-hydroxy-1,3-dihydrobenzo[c][1,2]oxaborol-5-yloxy)-1-(4-(pyrimidin-2-yl)piperazin-1-yl)ethanone]	190 to 195
OB1OCc2ccc(F)cc21 [C13, 1,3-Dihydro-6-fluoro-1-hydroxy-2,1-benzoxaborole]	110 to 117.5
Cc1cc(Oc2ccc(C#N)cc2)ccc1B(O)O [C99, 4-(4-Cyanophenoxy)-2-Methylphenylboronic acid]	161 to 165
OB1OCc2cc3c(cc21)COB3O [C60, 3,7-dihydro-1,5-dihydroxy-1H,3H-Benzo[1,2-c:4,5-c′]bis[1,2]oxaborole]	> 250
OB1OCc2cccc(F)c21 [C86, 7-fluorobenzo[c][1,2]oxaborol-1(3H)-ol]	120 to 124
COc1ccc(Sc2ccc3c(c2)B(O)OC3)cc1 [C32, 6-(4-Methoxyphenylthio)-1,3-dihydro-1-hydroxy-2,1-benzoxaborole]	95 to 100
CCCCC(=O)c1cccc(COc2ccc3c(c2)COB3O)c1 [C45, 1-(3-((1-hydroxy-1,3-dihydrobenzo[c][1,2]oxaborol-5-yloxy)methyl)phenyl)pentan-1-one]	96 to 98
OB1OCc2ccc(N3CCOCC3)cc21 [C56, 6-morpholinobenzo[c][1,2]oxaborol-1(3H)-ol]	128 to 132
COc1ccc2c(c1)c(Sc1ccccc1)cn2-c1ccc2c(c1)B(O)OC2 [C72, 6-(5-methoxy-3-(phenylthio)-1H-indol-1-yl)benzo[c][1,2]oxaborol-1(3H)-ol]	135 to 141

More lines, now with the values ahead:

melting point [°C]	SMILES
159 to 164	OB1OCc2cc(F)c(NCc3ccccc3)cc21 [C71, 6-(benzylamino)-5-fluorobenzo[c][1,2]oxaborol-1(3H)-ol]
159 to 161	OB1OCc2ccc(N3CCN(c4ccccc4)CC3)cc21 [C53, 6-(4-phenylpiperazin-1-yl)benzo[c][1,2]oxaborol-1(3H)-ol]
126 to 133	OB1OCc2ccc(NCc3ccccc3)cc21 [C77, 6-(benzylamino)benzo[c][1,2]oxaborol-1(3H)-ol]
119 to 130	OB1OCc2ccc(Oc3ccc(Cl)cc3)cc21 [C20, 6-(4-Chlorophenoxy)-1,3-dihydro-1-hydroxy-2,1-benzoxaborole]
175 to 184	O=S(=O)(Nc1ccc2c(c1)B(O)OC2)c1ccccc1 [C62, N-(1-hydroxy-1,3-dihydrobenzo[c][1,2]oxaborol-6-yl)benzenesulfonamide]
146 to 149	N#Cc1cccc(Oc2ccc3c(c2)B(O)OC3)c1 [C19, 6-(3-Cyanophenoxy)-1,3-dihydro-1-hydroxy-2,1-benzoxaborole]
154 to 161	[O-][S+](c1ccc(Cl)cc1)c1ccc2c(c1)B(O)OC2 (stereo not shown) [C89, 6-(4-chlorophenylsulfinyl)benzo[c][1,2]oxaborol-1(3H)-ol]
135 to 140	OB1OCc2ccc(-n3ccc4ccccc43)cc21 [C55, 6-(1H-indol-1-yl)benzo[c][1,2]oxaborol-1(3H)-ol]
157 to 163	O=S(=O)(c1ccc(Cl)cc1)c1ccc2c(c1)B(O)OC2 [C90, 6-(4-chlorophenylsulfonyl)benzo[c][1,2]oxaborol-1(3H)-ol]
115 to 123	OB1OCc2ccc(N(Cc3ccccc3)Cc3ccccc3)cc21 [C78, 6-(dibenzylamino)benzo[c][1,2]oxaborol-1(3H)-ol]
